Measured values published in patent US20130078287A1 (Horizon Pharma USA, Inc., priority 2010, published 2013).

Tested on: subjects expected to require daily NSAID therapy
Assay: Integrated REDUCE-1 and REDUCE-2: adverse events
[1] = integrated REDUCE-1 and REDUCE-2

Q: How did the “AEs Leading to Discontinuation, Incidence (%)” value [1] turn out when `CC(C)Cc1ccc(C(C)C(=O)O)cc1` (stereo not drawn) [Ibuprofen, 2-(p-isobutylphenyl)propionic acid] was run?
A: Its value is 7.6%.

Q: And the “AEs by Relatedness: Possibly Related, Incidence (%)” value [1]?
A: Its value is 25.0%.

Q: And the “AEs by Relatedness: Probably Not Related, Incidence (%)” value [1]?
A: Its value is 33.7%.

Q: What about the “AEs by Severity: Life Threatening, Incidence (%)” value [1] of the same compound?
A: Its value is 0.4%.

Q: And the “AEs by Severity: Moderate, Incidence (%)” value [1]?
A: Its value is 25.0%.

Q: What about the “AEs by Severity: Severe, Incidence (%)” value [1] of the same compound?
A: Its value is 6.8%.

Q: What about the “Subjects with at least one AE, Incidence (%)” value [1] of the same compound?
A: Its value is 58.7%.

Q: What about the “TEAE: Abdominal distension” value (integrated, safety population) of the same compound?
A: Its value is 1.4 (7) %.

Q: And the “TEAE: Abdominal pain” value (integrated, safety population)?
A: The value was 1.6 (8) %.

Q: What about the “TEAE: Abdominal pain upper” value (integrated, safety population) of the same compound?
A: The value was 2.5 (13) %.

Q: What about the “TEAE: Abdominal tenderness” value (integrated, safety population) of the same compound?
A: The value was 1.0 (5) %.

Q: And the “TEAE: Anaemia” value (integrated, safety population)?
A: Its value is 1.4 (7) %.

Q: And the “TEAE: Arthralgia” value (integrated, safety population)?
A: Its value is 1.8 (9) %.

Q: What about the “TEAE: Back pain” value (integrated, safety population) of the same compound?
A: Its value is 0.8 (4) %.

Q: And the “TEAE: Blood and lymphatic system disorders” value (integrated, safety population)?
A: The value was 1.8 (9) %.

Q: And the “TEAE: Bronchitis” value (integrated, safety population)?
A: Its value is 1.2 (6) %.

Q: What about the “TEAE: Constipation” value (integrated, safety population) of the same compound?
A: Its value is 4.1 (21) %.

Q: And the “TEAE: Cough” value (integrated, safety population)?
A: The value was 2.0 (10) %.

Q: And the “TEAE: Diarrhoea” value (integrated, safety population)?
A: Its value is 4.3 (22) %.

Q: And the “TEAE: Dizziness” value (integrated, safety population)?
A: Its value is 1.4 (7) %.

Q: What about the “TEAE: Dyspepsia” value (integrated, safety population) of the same compound?
A: The value was 8.0 (41) %.

Q: And the “TEAE: Dyspnoea” value (integrated, safety population)?
A: The value was 1.0 (5) %.

Q: And the “TEAE: Fall” value (integrated, safety population)?
A: The value was 1.0 (5) %.

Q: What about the “TEAE: Fatigue” value (integrated, safety population) of the same compound?
A: The value was 1.0 (5) %.

Q: What about the “TEAE: Flatulence” value (integrated, safety population) of the same compound?
A: The value was 0.4 (2) %.

Q: What about the “TEAE: Gastritis” value (integrated, safety population) of the same compound?
A: Its value is 1.4 (7) %.

Q: What about the “TEAE: Gastro-oesophageal reflux disease” value (integrated, safety population) of the same compound?
A: Its value is 3.1 (16) %.

Q: What about the “TEAE: Gastroenteritis viral” value (integrated, safety population) of the same compound?
A: Its value is 0.8 (4) %.

Q: What about the “TEAE: Gastrointestinal disorders” value (integrated, safety population) of the same compound?
A: Its value is 28.4 (145) %.

Q: What about the “TEAE: General disorders and administration site conditions” value (integrated, safety population) of the same compound?
A: Its value is 4.5 (23) %.

Q: And the “TEAE: Headache” value (integrated, safety population)?
A: Its value is 3.3 (17) %.

Q: What about the “TEAE: Hypertension” value (integrated, safety population) of the same compound?
A: The value was 2.2 (11) %.

Q: What about the “TEAE: Infections and infestations” value (integrated, safety population) of the same compound?
A: The value was 20.7 (106) %.

Q: And the “TEAE: Influenza” value (integrated, safety population)?
A: The value was 1.6 (8) %.

Q: What about the “TEAE: Injury, poisoning and procedural complications” value (integrated, safety population) of the same compound?
A: Its value is 5.1 (26) %.

Q: And the “TEAE: Insomnia” value (integrated, safety population)?
A: Its value is 1.0 (5) %.

Q: What about the “TEAE: Muscle spasms” value (integrated, safety population) of the same compound?
A: The value was 0.4 (2) %.

Q: What about the “TEAE: Musculoskeletal and connective tissue disorders” value (integrated, safety population) of the same compound?
A: Its value is 6.8 (35) %.

Q: What about the “TEAE: Musculoskeletal pain” value (integrated, safety population) of the same compound?
A: The value was 0.8 (4) %.

Q: What about the “TEAE: Nasopharyngitis” value (integrated, safety population) of the same compound?
A: Its value is 2.7 (14) %.

Q: And the “TEAE: Nausea” value (integrated, safety population)?
A: The value was 4.7 (24) %.

Q: And the “TEAE: Nervous system disorders” value (integrated, safety population)?
A: Its value is 6.1 (31) %.

Q: And the “TEAE: Oedema peripheral” value (integrated, safety population)?
A: The value was 1.8 (9) %.

Q: What about the “TEAE: Pain in extremity” value (integrated, safety population) of the same compound?
A: The value was 0.8 (4) %.

Q: What about the “TEAE: Pharyngolaryngeal pain” value (integrated, safety population) of the same compound?
A: Its value is 1.2 (6) %.

Q: What about the “TEAE: Psychiatric disorders” value (integrated, safety population) of the same compound?
A: The value was 3.1 (16) %.

Q: What about the “TEAE: Rash” value (integrated, safety population) of the same compound?
A: Its value is 1.0 (5) %.

Q: And the “TEAE: Respiratory, thoracic and mediastinal disorders” value (integrated, safety population)?
A: Its value is 7.0 (36) %.

Q: And the “TEAE: Sinus congestion” value (integrated, safety population)?
A: The value was 1.4 (7) %.

Q: And the “TEAE: Sinusitis” value (integrated, safety population)?
A: The value was 2.7 (14) %.

Q: And the “TEAE: Skin and subcutaneous tissue disorders” value (integrated, safety population)?
A: The value was 3.5 (18) %.

Q: And the “TEAE: Stomach discomfort” value (integrated, safety population)?
A: Its value is 1.6 (8) %.

Q: And the “TEAE: Upper respiratory tract infection” value (integrated, safety population)?
A: Its value is 4.1 (21) %.

Q: And the “TEAE: Urinary tract infection” value (integrated, safety population)?
A: The value was 2.3 (12) %.

Q: What about the “TEAE: Vascular disorders” value (integrated, safety population) of the same compound?
A: Its value is 2.7 (14) %.

Q: And the “TEAE: Vomiting” value (integrated, safety population)?
A: The value was 1.8 (9) %.

Q: And the “Total Subjects With at Least One TEAE” value (integrated, safety population)?
A: Its value is 58.7 (300) %.
